Laboratory results from patent US11214594B2, “Antimicrobial peptide having synergistic antibacterial effect with antibiotics on multidrug resistant bacteria, and use thereof” (priority 2016, dated 2022).
Converted amounts (≈) assume the structure as drawn. Like-named read-outs stand apart in the source and are kept apart here. Where a SMILES comes first, the peptide text is derived from it. [ ]: non-standard residue; d: D form.

Assays:
P. aeruginosa = assay: microbe, parasite or virus in culture; type: cell-based, Pseudomonas aeruginosa
In short: (§1)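 MIC read-out = lowest peptide level with no bacterial proliferation. Strains diluted in MH medium to 2×10^6 CFU; peptide twofold serial dilutions in MH added 1:1 in microtiter wells.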

MDRAB 12035 = assay: MIC of antibiotic during combined treatment with antimicrobial peptide; type: cell-based, Acinetobacter baumannii
Method: (§2) Specifically, the strains described in [Table 2] were prepared and diluted with an MH medium such that the number of bacteria was 2×10^6 colony-forming units (CFUs) per 1 ml, 100 μl of the diluted strains was each aliquoted into a 96-well microtiter plate, and then 50 μl of a peptide solution diluted with the MH medium from the MIC value (solution diluted stepwise at 2: 1) was added to each well. Thereafter, the MIC value of each mixed solution was determined by diluting the antibiotic solution with the MH medium, adding 50 μl of the diluted solution to each well, and performing an experiment even under a reversed condition.

MDRAB 12036 = type: cell-based, Acinetobacter baumannii
Method: (§3) For the antibacterial activity, a minimal inhibitory concentration (MIC) of a peptide in which fungus bodies were not split in an MH medium with sufficient nutrients was measured.
(§4) Specifically, the strains described in the following [Table 2] were purchased and diluted with an MH medium such that the number of bacteria was 2×10^6 colony-forming units (CFUs), 100 μl of each of the diluted strains was aliquoted into a 96-well microtiter plate, and then 100 μl of a peptide solution diluted with the MH medium (solution diluted stepwise at 2: 1) was added to each well.

S. epidermidis = assay: microbe, parasite or virus in culture; type: cell-based, Staphylococcus epidermidis
In short: as §1

MDRPA 2003 = type: cell-based, Pseudomonas aeruginosa
Method: as §3, §4

MDRST 8009 = type: cell-based, Salmonella typhimurium; details: agent alone
Method: as §3, §4

E. coli = type: cell-based, Escherichia coli; details: E. coli
Method: as §2

MDREC 1229 = type: cell-based, Escherichia coli
Method: as §2

MDREC 1238 = type: cell-based, Escherichia coli
Method: as §3, §4

A. baumannii = assay: MIC of antibiotic during combined treatment with antimicrobial peptide; type: cell-based, Acinetobacter baumannii; details: for Antibiotic MIC, Erythromycin / Antibiotic MIC, Linezolid / Antibiotic MIC, Vancomycin: A. baumannii
Method: Thereafter, the MIC value of each mixed solution was determined by diluting the antibiotic solution with the MH medium, adding 50 μl of the diluted solution to each well, and performing an experiment even under a reversed condition.

[1] = peptide treatment concentration 1 μg/ml
[2] = peptide treatment concentration 2 μg/ml
[3] = peptide treatment concentration 4 μg/ml
[4] = peptide treatment concentration 6 μg/ml
[5] = peptide treatment concentration 8 μg/ml
[6] = peptide treatment concentration 16 μg/ml
[7] = peptide treatment concentration 32 μg/ml
[8] = peptide treatment concentration 64 μg/ml
[9] = combined with peptide at 1 μg/ml
[10] = combined with peptide at 2 μg/ml
[11] = combined with peptide at 4 μg/ml
[12] = combined with peptide at 6 μg/ml

## CC[C@H](C)[C@H](NC(=O)[C@H](CCCCN)NC(=O)[C@H](Cc1c[nH]c2ccccc12)NC(=O)[C@@H](N)CCCNC(=N)N)C(=O)N[C@@H](Cc1ccccc1)C(=O)N[C@@H](CCCCN)C(=O)N[C@@H](CCCCN)C(=O)N[C@H](C(=O)N[C@H](CC(C)C)C(=O)N[C@@H](CCCCN)C(=O)N[C@@H](CC(C)C)C(=O)N[C@@H](CC(C)C)C(=O)N[C@@H](Cc1c[nH]cn1)C(=O)N[C@@H](CCCCN)C(=O)N[C@@H](C)C(=O)N[C@@H](CCCCN)C(=O)N[C@@H](CCCCN)C(=O)N[C@@H](Cc1c[nH]c2ccccc12)C(N)=O)[C@@H](C)CC [PapMA-22, RWK IFK KIl KLL HKA KKW-NH2] (H-RWKIFKKI[dL]KLLHKAKKW-NH2; N-terminus assumed)
P. aeruginosa
  Minimal inhibitory concentration MIC: 16 µg/mL (≈ 6.77 µM)
MDRAB 12035; [1]
  Erythromycin MIC during combined treatment with peptide: 32 µg/mL
  Linezolid MIC during combined treatment with peptide: >128 µg/mL
  Vancomycin MIC during combined treatment with peptide: >128 µg/mL
MDRAB 12035; [2]
  Erythromycin MIC during combined treatment with peptide: 32 µg/mL
  Linezolid MIC during combined treatment with peptide: >128 µg/mL
  Vancomycin MIC during combined treatment with peptide: >128 µg/mL
MDRAB 12035; [3]
  Erythromycin MIC during combined treatment with peptide: 16 µg/mL
  Linezolid MIC during combined treatment with peptide: 64 µg/mL
  Vancomycin MIC during combined treatment with peptide: 128 µg/mL
MDRAB 12035; [4]
  Erythromycin MIC during combined treatment with peptide: 2 µg/mL
  Linezolid MIC during combined treatment with peptide: 16 µg/mL
  Vancomycin MIC during combined treatment with peptide: 32 µg/mL
MDRAB 12035; [5]
  Erythromycin MIC during combined treatment with peptide: 1 µg/mL
  Linezolid MIC during combined treatment with peptide: 16 µg/mL
  Vancomycin MIC during combined treatment with peptide: 16 µg/mL
MDRAB 12035; [6]
  Erythromycin MIC during combined treatment with peptide: 0.25 µg/mL
  Linezolid MIC during combined treatment with peptide: 8 µg/mL
  Vancomycin MIC during combined treatment with peptide: 8 µg/mL
MDRAB 12035; [7]
  Erythromycin MIC during combined treatment with peptide: 0 µg/mL
  Linezolid MIC during combined treatment with peptide: 0 µg/mL
  Vancomycin MIC during combined treatment with peptide: 0 µg/mL
MDRAB 12035; [8]
  Erythromycin MIC during combined treatment with peptide: 0 µg/mL
  Linezolid MIC during combined treatment with peptide: 0 µg/mL
  Vancomycin MIC during combined treatment with peptide: 0 µg/mL
MDRAB 12036
  Minimal inhibitory concentration MIC: 32 µg/mL (≈ 13.5 µM)
S. epidermidis
  Minimal inhibitory concentration MIC: >128 µg/mL
MDRPA 2003
  Minimal inhibitory concentration MIC: 32 µg/mL (≈ 13.5 µM)
MDRST 8009
  Minimal inhibitory concentration MIC: 32 µg/mL (≈ 13.5 µM)
E. coli; with Erythromycin […] (Conc./MIC 1)
  Peptide MIC: 0 µg/mL
E. coli; with Linezolid […] (Conc./MIC 1)
  Peptide MIC: 0 µg/mL
E. coli; with Vancomycin 1024 μg/ml (Conc./MIC 1)
  Peptide MIC: 0 µg/mL
MDREC 1229; erythromycin 32 μg/ml (Conc./MIC 1/8)
  Peptide MIC during treatment with antibiotic: 2 µg/mL
MDREC 1229; erythromycin 64 μg/ml (Conc./MIC 1/4)
  Peptide MIC during treatment with antibiotic: 2 µg/mL
MDREC 1229; erythromycin […] (Conc./MIC 1)
  Peptide MIC during treatment with antibiotic: 0 µg/mL
MDREC 1229; erythromycin […] (Conc./MIC 1/2)
  Peptide MIC during treatment with antibiotic: 1 µg/mL
MDREC 1229; linezolid 64 μg/ml (Conc./MIC 1/8)
  Peptide MIC during treatment with antibiotic: 8 µg/mL
MDREC 1229; linezolid 512 μg/ml (Conc./MIC 1)
  Peptide MIC during treatment with antibiotic: 0 µg/mL
MDREC 1229; linezolid […] (Conc./MIC 1/2)
  Peptide MIC during treatment with antibiotic: 1 µg/mL
MDREC 1229; linezolid […] (Conc./MIC 1/4)
  Peptide MIC during treatment with antibiotic: 4 µg/mL
MDREC 1229; vancomycin 512 μg/ml (Conc./MIC 1/2)
  Peptide MIC during treatment with antibiotic: 2 µg/mL
MDREC 1229; vancomycin 1024 μg/ml (Conc./MIC 1)
  Peptide MIC during treatment with antibiotic: 2 µg/mL
MDREC 1229; vancomycin […] (Conc./MIC 1/4)
  Peptide MIC during treatment with antibiotic: 4 µg/mL
MDREC 1229; vancomycin […] (Conc./MIC 1/8)
  Peptide MIC during treatment with antibiotic: 8 µg/mL
MDREC 1238
  Minimal inhibitory concentration MIC: 32 µg/mL (≈ 13.5 µM)
A. baumannii; A. baumannii and MDRAB 12035
  Synergistic effect of antibacterial activity with existing antibiotics compared with PapMA-1: level similar to that of PapMA-1 peptide
A. baumannii; [9]
  Antibiotic MIC, Erythromycin: 32 µg/mL
  Antibiotic MIC, Linezolid: >128 µg/mL
  Antibiotic MIC, Vancomycin: >128 µg/mL
A. baumannii; [10]
  Antibiotic MIC, Erythromycin: 32 µg/mL
  Antibiotic MIC, Linezolid: >128 µg/mL
  Antibiotic MIC, Vancomycin: 128 µg/mL
A. baumannii; [11]
  Antibiotic MIC, Erythromycin: 8 µg/mL
  Antibiotic MIC, Linezolid: 32 µg/mL
  Antibiotic MIC, Vancomycin: 64 µg/mL
A. baumannii; [12]
  Antibiotic MIC, Erythromycin: 2 µg/mL
  Antibiotic MIC, Linezolid: 16 µg/mL
  Antibiotic MIC, Vancomycin: 32 µg/mL
A. baumannii; combined with peptide at 8 μg/ml
  Antibiotic MIC, Erythromycin: 1 µg/mL
